Laboratory results as given in ChEMBL document CHEMBL5357003, “A Simple Chiral 1H NMR Method for the Discrimination of (R)- and (S)-Cannabichromene in Complex Natural Mixtures and Their Effects on TRPA1 Activity” (J Nat Prod, 2024).
Values after ≈ are worked out from the molar mass of the structure shown. Active and inactive are the calls of the source. No cut-off for these calls is given here.

How the values were obtained:
[1] = Cytotoxicity against human T24 cells by XTT assay; type: toxicity, cell-based, T-24
[2] = molecular target: Transient receptor potential cation channel subfamily A member 1 (Homo sapiens) (UniProt O75762); assay: Agonist activity at human TRPA1 expressed in HEK293E cells assessed as calcium mobilization measured every 2 sec for 150 sec by microplate reader analysis; type: cell-based; details: filed as agonist
Chain of Transient receptor potential cation channel subfamily A member 1 (Homo sapiens) (O75762 whole entry): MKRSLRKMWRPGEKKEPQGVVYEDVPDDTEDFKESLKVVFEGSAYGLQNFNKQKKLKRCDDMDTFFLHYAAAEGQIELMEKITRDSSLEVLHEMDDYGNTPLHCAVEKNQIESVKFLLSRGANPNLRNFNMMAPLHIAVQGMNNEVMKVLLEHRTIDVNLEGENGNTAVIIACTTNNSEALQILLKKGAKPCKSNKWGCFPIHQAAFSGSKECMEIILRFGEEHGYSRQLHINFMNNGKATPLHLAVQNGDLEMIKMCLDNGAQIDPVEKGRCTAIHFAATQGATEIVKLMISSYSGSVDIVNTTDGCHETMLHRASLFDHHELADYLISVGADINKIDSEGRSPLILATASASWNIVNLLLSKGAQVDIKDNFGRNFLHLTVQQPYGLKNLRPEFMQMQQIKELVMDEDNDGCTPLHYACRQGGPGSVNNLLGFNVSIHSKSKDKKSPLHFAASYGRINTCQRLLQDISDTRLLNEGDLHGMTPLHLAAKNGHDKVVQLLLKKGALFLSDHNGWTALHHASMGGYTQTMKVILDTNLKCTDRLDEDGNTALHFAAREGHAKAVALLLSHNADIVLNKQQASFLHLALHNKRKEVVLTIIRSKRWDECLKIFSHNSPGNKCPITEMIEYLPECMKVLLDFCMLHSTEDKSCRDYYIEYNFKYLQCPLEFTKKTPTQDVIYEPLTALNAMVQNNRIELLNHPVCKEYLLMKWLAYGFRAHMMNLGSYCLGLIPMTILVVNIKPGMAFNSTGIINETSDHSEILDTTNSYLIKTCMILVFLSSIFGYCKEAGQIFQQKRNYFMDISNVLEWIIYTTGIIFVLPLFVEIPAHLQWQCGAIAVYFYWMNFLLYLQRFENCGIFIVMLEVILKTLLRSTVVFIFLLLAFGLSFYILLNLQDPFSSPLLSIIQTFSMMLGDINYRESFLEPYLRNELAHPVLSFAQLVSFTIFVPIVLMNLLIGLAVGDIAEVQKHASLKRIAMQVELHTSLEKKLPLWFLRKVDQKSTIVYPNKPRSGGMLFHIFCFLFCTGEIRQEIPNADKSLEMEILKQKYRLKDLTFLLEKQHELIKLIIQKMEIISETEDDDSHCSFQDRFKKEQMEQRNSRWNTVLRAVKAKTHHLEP

[3] = molecular target: Transient receptor potential cation channel subfamily A member 1 (Rattus norvegicus) (UniProt Q6RI86); assay: Agonist activity at rat TRPA1 expressed in HEK293E cells assessed as calcium mobilization measured every 2 sec for 150 sec by microplate reader analysis; type: cell-based; details: filed as agonist
Chain of Transient receptor potential cation channel subfamily A member 1 (Rattus norvegicus) (Q6RI86 whole entry): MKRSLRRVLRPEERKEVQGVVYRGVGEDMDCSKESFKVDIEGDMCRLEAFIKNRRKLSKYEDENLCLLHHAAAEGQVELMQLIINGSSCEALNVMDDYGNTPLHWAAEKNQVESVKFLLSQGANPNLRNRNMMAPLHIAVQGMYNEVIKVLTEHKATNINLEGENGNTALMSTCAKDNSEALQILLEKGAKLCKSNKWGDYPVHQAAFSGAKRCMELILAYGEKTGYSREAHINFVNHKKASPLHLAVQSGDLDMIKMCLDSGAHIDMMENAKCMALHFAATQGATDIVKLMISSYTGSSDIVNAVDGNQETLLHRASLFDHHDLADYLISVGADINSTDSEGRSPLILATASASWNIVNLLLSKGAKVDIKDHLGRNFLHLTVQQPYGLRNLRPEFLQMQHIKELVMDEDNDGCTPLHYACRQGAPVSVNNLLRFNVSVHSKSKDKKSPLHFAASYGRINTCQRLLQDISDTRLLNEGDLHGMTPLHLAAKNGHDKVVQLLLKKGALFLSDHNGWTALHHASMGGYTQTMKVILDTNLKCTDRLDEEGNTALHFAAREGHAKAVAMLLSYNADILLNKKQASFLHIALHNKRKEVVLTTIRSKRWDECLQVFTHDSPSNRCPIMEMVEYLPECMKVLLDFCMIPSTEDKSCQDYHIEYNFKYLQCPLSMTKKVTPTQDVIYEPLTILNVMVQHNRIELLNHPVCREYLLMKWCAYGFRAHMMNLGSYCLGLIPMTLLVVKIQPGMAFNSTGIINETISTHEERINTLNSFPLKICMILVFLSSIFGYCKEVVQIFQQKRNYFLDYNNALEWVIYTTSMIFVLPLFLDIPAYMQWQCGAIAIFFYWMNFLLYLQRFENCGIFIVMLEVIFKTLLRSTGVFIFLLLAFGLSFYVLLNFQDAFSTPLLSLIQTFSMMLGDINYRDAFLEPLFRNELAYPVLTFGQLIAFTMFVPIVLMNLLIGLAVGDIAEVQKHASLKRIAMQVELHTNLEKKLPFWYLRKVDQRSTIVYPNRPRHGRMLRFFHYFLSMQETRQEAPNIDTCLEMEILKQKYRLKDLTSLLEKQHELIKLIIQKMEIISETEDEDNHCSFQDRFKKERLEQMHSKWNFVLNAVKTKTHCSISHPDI

[4] = molecular target: Transient receptor potential cation channel subfamily A member 1 (Rattus norvegicus, UniProt Q6RI86); assay: Agonist activity at rat TRPA1 expressed in HEK293 cells; type: cell-based
Chain of Transient receptor potential cation channel subfamily A member 1 (Q6RI86 whole entry): as above

Row | SMILES | IC50 [1] [µg/mL] | Activity [2] | Activity [3] | EC50 [4] [nM]
1 | CCCCCc1cc(O)c2c(c1)OC(C)(C)[C@@H]1CCC(C)=C[C@@H]21 [DRONABINOL] | 13 (≈ 41.5 µM) | – | – | –
2 | CCCCCc1cc(O)c2c(c1)O[C@](C)(CCC=C(C)C)C=C2 | – | Active | Active | –
3 | CCCCCc1cc(O)c2c(c1)O[C@@](C)(CCC=C(C)C)C=C2 | – | Active | Active | –
4 | CCCCCc1cc(O)c2c(c1)OC(C)(CCC=C(C)C)C=C2 (racemic) [CANNABICHROMENE] | 13 (≈ 41.5 µM) | – | – | 90
